Source: US12343397B2, “Drug-resistant immune cells and methods of use thereof” (Regents of the University of Minnesota, priority 2018, dated 2025)

Legend:
Tregs = assay: CNI (CsA, FK506) effect on Treg survival in vitro; assay type: cell-based, human; conditions: cyclosporine 20, 200, 2000 ng/ml or FK506 3, 10, 30 ng/ml, 2-3 days; IL-2 300 U/mL; even at >3-fold over peak therapeutic values
From the text: The percent survival relative to the control Tregs without drugs is shown. IL-2 concentration of 300 U/mL was used. […] FIG. 7D depicts data showing the percent relative survival of Tregs without drug at IL-2 300 U/mL as compared to those cultured with the indicated concentrations of drug in the presence of IL-2 at 30, 100, or 300 U/mL as indicated. Mean values are shown±standard error of the mean for three (FIG. 7B) or four (FIG. 7D) separate cultures.
To model the in vivo inhibitory effects of CNI on Treg survival and expansion, banked Tregs were thawed, re-stimulated, expanded for 4±1 days and treated with or without cyclosporine (20, 200, and 2000 ng/ml) or FK506 (3, 10, 30 ng/ml) for an additional 2-3 days and relative survival was assessed by flow cytometry. Studies were performed with non-separated Tregs, naïve Tregs and memory Tregs, to determine whether one subset was differentially sensitive to Dex and CNIs and to determine whether IL-2 dependency differences might permit lower IL-2 concentrations.

allogeneic GVHD model = assay type: in vivo
From the text: To test whether gene modified (GR2-CRISPR/Cas9) or gene edited (GR2-CRISPR/Cas9/AAV-CaN mut.) Tregs have increased efficacy in vivo in the presence of glucocorticoid, how glucocorticoid (methyl-prednisolone) effects GVHD in preclinical mouse models was first determined. […] For these reasons, as well as the more logistically feasible and cost effective benefits of an allogeneic GVHD model, optimized steroid use in allogeneic recipients for GVHD prevention and therapy were first tested, and then applied to a xenogeneic model to enable testing of the human Treg product. […] The T cell dose was reduced to 1.5×10^6 and moved to GVHD therapy beginning on day 3 or day 4 (rather than day 1 prophylaxis) and compared no treatment to vehicle to prednisolone (n=8/group).

xeno-GVHD model = assay: Xenogeneic GVHD model (NSG mice given human PBMC); assay type: in vivo
Procedure: FIGS. 11A-11D depicts the monitoring of GVHD in mice. Human PBMC (15×10^6) were injected into irradiated (50 rad) NSG mice±methylprednisolone (15 mg/kg), and signs of GVHD were monitored. FIG. 11A depicts a schematic illustration of the experiments indicating cohorts (n=7 mice each), dosing schedule, and analysis points. FIG. 11B depicts Kaplan-Meier survival curves for mice receiving PBMC only, or PBMC+prednisolone (p=0.104). FIG. 11C depicts disease progression monitored by weight loss (p=not significant). FIG. 11D depicts disease progression monitored by quantitating the number of PBMC-derived CD45+, CD4+, CD8+, and CD4+Foxp3+ T cells (p<0.03, <0.05, <0.03, and not significant, respectively). Animals were bled on day 19 for assessment.
FIGS. 12A-12D depicts the monitoring of GVHD in mice. […] FIG. 12B depicts Kaplan-Meier survival curves for mice receiving PBMC only, or PBMC+CNI (PBMC only vs. FK506 (36 mg/kg), p≤0.04). FIG. 12C depicts disease progression monitored by weight loss (p=not significant). FIG. 12D depicts disease progression monitored by quantitating the number of PBMC-derived CD45+, CD4+, CD8+, and CD4+Foxp3+ T cells (p<0.03, <0.05, <0.02, and not significant, respectively). Animals were bled on day 18 for assessment.
A follow up study has shown that xeno-GVHD pathology induced with 200 rad+1×10^7 human PBMC is more reproducible, and median survival is reduced from ˜25 days to ˜20 days.

## C=CC[C@@H]1/C=C(\C)C[C@H](C)C[C@H](OC)[C@H]2O[C@@](O)(C(=O)C(=O)N3CCCC[C@H]3C(=O)O[C@H](/C(C)=C/[C@@H]3CC[C@@H](O)[C@H](OC)C3)[C@H](C)[C@@H](O)CC1=O)[C@H](C)C[C@@H]2OC [FK506, Tacrolimus]
Tregs
  effect on Treg survival in vitro: neither CsA or FK506 had a significant effect on Treg survival
Allogeneic GVHD model; 36 mg/kg/day in carboxymethylcellulose, vehicle 0% by day 37
  day 100 survival: 55%-90
Allogeneic GVHD model; 12 or 24 mg/kg/day in aqueous solution
  GVHD prophylaxis efficacy: poorer efficacy
Allogeneic GVHD model; allogeneic GVHD model
  optimal GVHD prophylactic dose: 36 mg/kg/day
xeno-GVHD model; 12 mg/kg, P=0.45
  survival: not significantly different
xeno-GVHD model; 12 mg/kg, controls 29 days
  median survival: 20 days
xeno-GVHD model; FK506 36 or 12 mg/kg, CsA 80 mg/kg, vs PBMC only controls
  in vivo expansion of human CD45+, CD4+ and CD8+ cells: significantly reduced
xeno-GVHD model; high dose, 36 mg/kg
  survival: significantly decreased survival
